# Data: ChEMBL document CHEMBL5137011, “Semisynthetic pleuromutilin antimicrobials with therapeutic potential against methicillin-resistant Staphylococcus aureus by targeting 50S ribosomal subunit” (Eur J Med Chem, 2022)
# Assays:
# [1] = test system: Staphylococcus aureus; test: Antibacterial activity against Staphylococcus aureus SA17 assessed as inhibition of bacterial growth incubated for 16 hrs by CLSI based broth microdilution method; assay type: functional
# [2] = test system: 16HBE14o-; test: Cytotoxicity against human 16HBE14o- cells assessed as reduction in cell viability at 8 ug/ml incubated for 16 hrs by MTT assay; assay type: toxicity, cell-based; conditions: dose 8 µg/ml
# [3] = test system: Staphylococcus aureus; test: Antibacterial activity against Staphylococcus aureus ATCC 29213 assessed as inhibition of bacterial growth incubated for 16 hrs by CLSI based broth microdilution method; assay type: functional
# [4] = test system: RAW264.7; test: Cytotoxicity against mouse RAW264.7 cells assessed as reduction in cell viability at 8 ug/ml incubated for 16 hrs by MTT assay; assay type: toxicity, cell-based; conditions: raw264.7, 16 h, dose 8 µg/ml
# [5] = test system: Staphylococcus aureus; test: Antibacterial activity against Staphylococcus aureus AD3 assessed as inhibition of bacterial growth incubated for 16 hrs by CLSI based broth microdilution method; assay type: functional
# [6] = test system: Staphylococcus aureus; test: Antibacterial activity against Staphylococcus aureus 144 assessed as inhibition of bacterial growth incubated for 16 hrs by CLSI based broth microdilution method; assay type: functional
# [7] = test system: Staphylococcus aureus; test: Antibacterial activity against methicillin-resistant Staphylococcus aureus ATCC 43300 assessed as inhibition of bacterial growth incubated for 16 hrs by CLSI based broth microdilution method; assay type: functional
# [8] = test system: 16HBE14o-; test: Cytotoxicity against human 16HBE14o- cells assessed as reduction in cell viability at 8 ug/ml incubated for 16 hrs by MTT assay relative to control; assay type: toxicity, cell-based; conditions: at 8 µg/mL
# [9] = target: Bacterial 70S ribosome (Bacteria) (UniProt P0A7V0+P60723+P0AG67+P0A7R5+P0A7R9+P0A7S3+P0A7S9+P0AG59+P0ADZ4+P0A7T3+P0AG63+P0A7T7+P0A7U3+P0A7U7+P68679+P0A7V3+P0A7V8+P0A7W1+P02358+P02359+P0A7W7+P0A7X3+P0A7J3+P0A7J7+P0AA10+P0ADY3+P02413+P0ADY7+P0AG44+P0C018+P0A7K6+P0A7L0+P0A7L3+P0AG48+P61175+P0ADZ0+P60624+P68919+P0A7L8+P0A7M2+P0A7M6+P60422+P0AG51+P0A7N1+P0A7M9+P0A7N4+P0A7N9+P0A7P5+P0A7Q1+Q2EEQ2+P0A7Q6+P60438+P62399+P0AG55+P0A7K2); test: Binding affinity to Staphylococcus aureus ATCC 43300 50S ribosomal subunit assessed as association rate constant by surface plasmon resonance analysis; assay type: subcellular
# [10] = test system: Staphylococcus aureus; test: Antibacterial activity against methicillin-resistant Staphylococcus aureus ATCC 43300 infected in ICR/Swiss mouse systemic infection model assessed as survival rate at 30 mg/kg, iv administered as bolus injection 1 hr post infection measured twice daily after 2 to 7 days; assay type: functional; conditions: time 2-7 day
# [11] = target: Bacterial 70S ribosome; test: Binding affinity to Staphylococcus aureus ATCC 43300 50S ribosomal subunit assessed as equilibrium dissociation constant by surface plasmon resonance analysis; assay type: subcellular
# [12] = test system: Staphylococcus aureus; test: Antibacterial activity against methicillin-resistant Staphylococcus aureus ATCC 43300 infected in ICR/Swiss mouse […] thigh infection model assessed as log reduction in bacterial load in thigh at 20 mg/kg, iv administered as bolus injection measured after 24 hrs; assay type: functional
# [13] = test system: Staphylococcus aureus; test: Antibacterial activity against methicillin-resistant Staphylococcus aureus ATCC 43300 assessed as log reduction in colony forming unit at 4 times MIC measured after 3 hrs by time kill assay; assay type: functional
# [14] = test system: Staphylococcus aureus; test: Antibacterial activity against methicillin-resistant Staphylococcus aureus ATCC 43300 assessed as log reduction in colony forming unit at 4 times MIC measured after 24 hrs by time kill assay; assay type: functional
# [15] = AUC(0 to infinity) in mouse at 10 mg/kg, iv administered as bolus injection measured upto 24 hrs by LC-MS analysis; assay type: ADME, organism-based; set-up: time < 24 hrs, dose 10 mg/kg, route iv; conditions: in vivo
# [16] = test system: Staphylococcus aureus; test: Antibacterial activity against methicillin-resistant Staphylococcus aureus ATCC 43300 infected in ICR/Swiss mouse systemic infection model assessed as survival rate at 30 mg/kg, iv administered as bolus injection 1 hr post infection measured twice daily after 3 to 7 days; assay type: functional; conditions: time 3-7 day
# [17] = Clearance in mouse at 10 mg/kg, iv administered as bolus infection measured upto 24 hrs by LC-MS analysis; assay type: ADME, organism-based; conditions: in vivo
# [18] = Clearance in mouse assessed as hepatic blood flow at 10 mg/kg, iv administered as bolus infection measured upto 24 hrs by LC-MS analysis; assay type: ADME, organism-based; conditions: in vivo
# [19] = Half life in mouse at 10 mg/kg, iv administered as bolus infection measured upto 24 hrs by LC-MS analysis; assay type: ADME, organism-based; conditions: in vivo
# [20] = AUC(0 to t) in mouse at 10 mg/kg, iv administered as bolus injection measured upto 24 hrs by LC-MS analysis; assay type: ADME, organism-based; set-up: dose 10 mg/kg, time < 24 hrs, route iv; conditions: in vivo
# [21] = MRT in mouse at 10 mg/kg, iv administered as bolus infection measured upto 24 hrs by LC-MS analysis; assay type: ADME, organism-based; conditions: in vivo
Compound,MIC [1] [µg/mL],Activity [2],MIC [3] [µg/mL],Activity [4],MIC [5] [µg/mL],MIC [6] [µg/mL],MIC [7] [µg/mL],further results
C=C[C@]1(C)C[C@@H](OC(=O)CSc2nnc(-c3cccc([N+](=O)[O-])c3)[nH]2)[C@]2(C)[C@H](C)CC[C@]3(CCC(=O)[C@H]32)[C@@H](C)[C@@H]1O,0.5,Non-Toxic,0.25,Non-Toxic,0.0625,2,0.125,
C=C[C@]1(C)C[C@@H](OC(=O)CSc2nnc(-c3cccc(C)c3)[nH]2)[C@]2(C)[C@H](C)CC[C@]3(CCC(=O)[C@H]32)[C@@H](C)[C@@H]1O,1,Non-Toxic,0.25,Non-Toxic,0.0625,4,0.25,
C=C[C@]1(C)C[C@@H](OC(=O)CSc2nnc(-c3ccccc3C(F)(F)F)[nH]2)[C@]2(C)[C@H](C)CC[C@]3(CCC(=O)[C@H]32)[C@@H](C)[C@@H]1O,4,Non-Toxic,0.5,Non-Toxic,0.25,8,0.25,
C=C[C@]1(C)C[C@@H](OC(=O)CSc2nnc(-c3ccc(C)cc3)[nH]2)[C@]2(C)[C@H](C)CC[C@]3(CCC(=O)[C@H]32)[C@@H](C)[C@@H]1O,0.5,Non-Toxic,0.125,Non-Toxic,0.0625,1,0.125,
C=C[C@]1(C)C[C@@H](OC(=O)CSc2nnc(-c3cccc(C(F)(F)F)c3)[nH]2)[C@]2(C)[C@H](C)CC[C@]3(CCC(=O)[C@H]32)[C@@H](C)[C@@H]1O,> 32,,2,Non-Toxic,0.25,> 32,1,Activity [8]: > 50%
C=C[C@]1(C)C[C@@H](OC(=O)CSc2nnc(-c3ccccc3C)[nH]2)[C@]2(C)[C@H](C)CC[C@]3(CCC(=O)[C@H]32)[C@@H](C)[C@@H]1O,0.5,Non-Toxic,0.25,Non-Toxic,0.125,1,0.0625,
C=C[C@]1(C)C[C@@H](OC(=O)CSc2nnc(-c3ccc([N+](=O)[O-])cc3)[nH]2)[C@]2(C)[C@H](C)CC[C@]3(CCC(=O)[C@H]32)[C@@H](C)[C@@H]1O,0.5,Non-Toxic,0.25,Non-Toxic,0.0625,2,0.125,
C=C[C@]1(C)C[C@@H](OC(=O)CSc2nnc(-c3ccccc3[N+](=O)[O-])[nH]2)[C@]2(C)[C@H](C)CC[C@]3(CCC(=O)[C@H]32)[C@@H](C)[C@@H]1O,0.125,Non-Toxic,0.125,Non-Toxic,0.25,0.25,0.25,
C=C[C@]1(C)C[C@@H](OC(=O)CSCCN(CC)CC)[C@]2(C)[C@H](C)CC[C@]3(CCC(=O)[C@H]32)[C@@H](C)[C@@H]1O [TIAMULIN],1,,0.5,,0.5,1,0.5,Ka [9]: 1.22 10^2/Ms; survival at 30 mg/kg [10]: 30%; Kd [11]: 36.3 nM; Activity [12]: -1.1 log10CFU/ml
C=C[C@]1(C)C[C@@H](OC(=O)CSc2nnc(-c3cccc(Cl)c3)[nH]2)[C@]2(C)[C@H](C)CC[C@]3(CCC(=O)[C@H]32)[C@@H](C)[C@@H]1O,0.125,Non-Toxic,0.125,Non-Toxic,0.125,0.25,0.0625,Activity [13]: -1 log10CFU/ml; Activity [14]: -9.23 log10CFU/ml
C=C[C@]1(C)C[C@@H](OC(=O)CSc2nnc(-c3ccc(OC)cc3)[nH]2)[C@]2(C)[C@H](C)CC[C@]3(CCC(=O)[C@H]32)[C@@H](C)[C@@H]1O,0.5,Non-Toxic,0.25,Non-Toxic,0.0625,1,0.125,
C=C[C@]1(C)C[C@@H](OC(=O)CSc2nnc(-c3ccccc3Cl)[nH]2)[C@]2(C)[C@H](C)CC[C@]3(CCC(=O)[C@H]32)[C@@H](C)[C@@H]1O,0.5,Non-Toxic,0.5,Non-Toxic,0.125,0.5,0.125,
C=C[C@]1(C)C[C@@H](OC(=O)CSc2nnc(-c3ccc(F)cc3)[nH]2)[C@]2(C)[C@H](C)CC[C@]3(CCC(=O)[C@H]32)[C@@H](C)[C@@H]1O,1,Non-Toxic,0.125,Non-Toxic,0.0625,1,0.125,
C=C[C@]1(C)C[C@@H](OC(=O)CSc2nnc(-c3cccc(F)c3)[nH]2)[C@]2(C)[C@H](C)CC[C@]3(CCC(=O)[C@H]32)[C@@H](C)[C@@H]1O,0.5,Non-Toxic,0.125,Non-Toxic,0.0625,1,0.125,
C=C[C@]1(C)C[C@@H](OC(=O)CSc2nnc(-c3ccc(Cl)cc3)[nH]2)[C@]2(C)[C@H](C)CC[C@]3(CCC(=O)[C@H]32)[C@@H](C)[C@@H]1O,0.5,Non-Toxic,0.0625,Non-Toxic,0.125,1,0.125,
C=C[C@]1(C)C[C@@H](OC(=O)CSc2nnc(-c3ccccc3F)[nH]2)[C@]2(C)[C@H](C)CC[C@]3(CCC(=O)[C@H]32)[C@@H](C)[C@@H]1O,0.125,Non-Toxic,0.125,Non-Toxic,0.03,0.25,0.0625,AUC(0-inf) [15]: 1840 ng·h/mL; survival at 30 mg/kg [16]: 50%; clearance [17]: 90.5 mL/min/kg; Ka [9]: 1.04 10^3/M.s; Activity [13]: -1.66 log10CFU/ml; Activity [14]: -7.7 log10CFU/ml; QH [18]: 90 mL/min/kg; t1/2 [19]: 22.2 min; Kd [11]: 1950 nM; AUC(0-t) at 24 h [20]: 1830 ng·h/mL; Activity [12]: -1.53 log10CFU/ml; MRT [21]: 1.56 h
C=C[C@]1(C)C[C@@H](OC(=O)CSc2nnc(-c3ccccc3OC)[nH]2)[C@]2(C)[C@H](C)CC[C@]3(CCC(=O)[C@H]32)[C@@H](C)[C@@H]1O,0.125,Non-Toxic,0.125,Non-Toxic,0.0625,0.125,0.0625,Ka [9]: 4.99 10^2/Ms; Activity [13]: -1.53 log10CFU/ml; Activity [14]: -7.1 log10CFU/ml; Kd [11]: 121000 nM; Activity [12]: -1.27 log10CFU/ml
C=C[C@]1(C)C[C@@H](OC(=O)CSc2nnc(-c3cccc(OC)c3)[nH]2)[C@]2(C)[C@H](C)CC[C@]3(CCC(=O)[C@H]32)[C@@H](C)[C@@H]1O,0.5,Non-Toxic,0.125,Non-Toxic,0.0625,0.5,0.125,
C=C[C@]1(C)C[C@@H](OC(=O)CSc2nnc(-c3ccc(C(F)(F)F)cc3)[nH]2)[C@]2(C)[C@H](C)CC[C@]3(CCC(=O)[C@H]32)[C@@H](C)[C@@H]1O,> 32,,2,Non-Toxic,0.25,> 32,0.5,Activity [8]: > 50%
